We go through one molecule from patent publication US6465519B2, “Uses of modafinil and its D/L enantiomers” (priority 1999, dated 2002).

In data set [1] the test system is spermatozoa counts in rats. The data set is described as follows: Effect of Modafinil on spermatogenesis in rats. It is filed as in vivo, SD male rats. Conditions: for mean number of spermatozoa per gram weight of sperm ± S.D.: SD male rats, sperm from epididymis tail. As for the experimental part:
EXPERIMENTAL ANIMALS: SD male rats, 2 months old, weighing 210 to 260 g, were used for this experiment. All the animals were fed in the laboratory for a week before starting the experiment for accommodative purpose. The animals were distributed randomly into 5 experimental groups, 10 in each group. The room temperature was kept at 20 to 25° C. 4 groups of rats were administrated with Modafinil and 1 group for control.
METHODS AND PROTOCOLS: In treated groups, various doses of Modafinil were given by gavage as 200, 400, 600 and 800 mg/kg/day in rats. Modafinil(prepared according to Example 1 in the U.S. Pat. No. 4,177,290) was mixed with 3% starch paste, 2 ml for each rat per day, gavage feeding for successive 30 days. The controlled animals received the 3% starch paste without drug, with same amount for 30 successive days. The morphology, motility and number of the spermatozoa of the animals in each group were observed and counted. On days 31, all animals were killed. Spermatozoa in the sperm taken from epididymis tail were counted; the testes and prostates were taken out. Histological sections were made and examined under microscope.

A further data set concerns SD rats of both sexes. As to the kind of experiment: Effect of Modafinil on sexual ability in rats. Type of data set: in vivo. Conditions: 200 mg/kg/day for 15 days. As for the experimental part: EXPERIMENTAL ANIMALS: SD rats of both sexes were used and feeding methods of the drug were the same as in the Example 1.
EXPERIMENTAL PROTOCOL: 15 males and 15 females for control fed with 3% starch paste for 15 days while 15 males and 15 females were is treated with 200 mg/kg/day of Modafinil(prepared according to Example 1 in the U.S. Pat. No. 4,177,290) for 15 days. On day 16 evening, each special cage was distributed by chance with 1 male and 1 female rat couple. For the first 2 hours of coinhabitation, the numbers of sexual intercourse movement of male along with acceptance of female were counted.

Another data set concerns Young female SD rats. The data set is described as follows: Effect of Modafinil on uterus weight in female rats. Type of data set: in vivo. Particulars: 200 mg/kg/day for 15 days. As for the experimental part:
EXPERIMENTAL ANIMAL: Young female SD rats of 25 days old were used. Food and drug administration was the sane as used in the Example 1.
EXPERIMENTAL PROTOCOL: 15 female rats for control were fed 3% starch paste 2 ml/day for 15 successive days. 15 female rats treated with Modafinil(prepared according to Example 1 in the U.S. Pat. No. 4,177,290) mixed with 3% starch paste for 200 mg/kg/day in 2 ml of starch paste a day. Animals were sacrificed on day 16 and the uterei were taken out. Every fresh uterus was weighed.

For data set [2] the following is noted: cited from earlier work.

Each structure is given as a SMILES string.

For the molecule `NC(=O)C[S+]([O-])C(c1ccccc1)c1ccccc1` (stereo not drawn) [Modafinil, 2-[(Diphenylmethyl)sulfinyl]-N-Acetamide], the “mean number of spermatozoa per gram weight of sperm ± S.D.” value in data set [1] (200 mg/kg/day by gavage for 30 days) is on record as 819.8 ± 295.6 per gram weight of sperm; in data set [1] (400 mg/kg/day by gavage for 30 days), 1753.8 ± 540.6 per gram weight of sperm; in data set [1] (600 mg/kg/day by gavage for 30 days), 1706.0 ± 379.9 per gram weight of sperm; in data set [1] (800 mg/kg/day by gavage for 30 days), 1656.0 ± 165.8 per gram weight of sperm. Moreover, in data set [1] (Modafinil treated groups versus controls, testes sections), the “histological examination: stages of normal spermatogenesis in the seminiferous tubules” value was “more distinct and regular than those in the controls”. Further, the “histological examination: cell degeneration during the course of spermatogenesis” value in data set [1] (Modafinil treated groups, testes sections) is reported as “No cell degeneration was found”. Further, the “number of spermatozoa and motility” value in data set [1] (all Modafinil treated groups (200-800 mg/kg/day, 30 days), rats) is recorded as “remarkably increased with active motility”. The “number of sexual intercourse (Mean±S.D.)” value with SD rats of both sexes (males and females treated, first 2 hours of coinhabitation on day 16) was 5.0±1.2 times/2 hours/couple. Further, the “mean number of sexual intercourse relative to control” value with SD rats of both sexes (rats) is 161 % of the control. For the same molecule, the “mean uterus weight relative to controls” value with Young female SD rats was 158 % of that in Controls. Moreover, the “mean uterus weight (Mean+S.D.)” value with Young female SD rats (fresh uterus on day 16) turned out to be 0.418 ± 0.082 g. For the same molecule, the solubility in acetone result in data set [2] (acetone) was “sparingly or slightly soluble”. In data set [2] (cyclohexane), the solubility in cyclohexane entry was “insoluble”. Moreover, the solubility in methanol result in data set [2] (methanol) was “sparingly or slightly soluble”. Also, the solubility in water entry in data set [2] (water) was “insoluble”.
